Test results taken from patent US20150297603A1, “HIGH DRUG LOAD TABLET FORMULATION OF [(1R), 2S]-2-AMINOPROPIONIC ACID 2-[4-(4-FLUORO-2-METHYL-1H-INDOL-5-YLOXY)-5-METHYLPYRROLO[2,1-f][1,2,4]TRIAZIN-6-YLOXY]-1-METHYLETHYL ESTER” (Bristol-Myers Squibb Company, priority 2011, published 2015).

Experiments:
Format in all cases: physicochemical
[1] = Degradation of drug during wet granulation process; details: wet granulation process (water as processing aid)
Source text: The use of wet granulation process for brivanib alaninate was not expected to be suitable because brivanib alaninate degrades by hydrolysis. Therefore, any person skilled in the art of pharmaceutical formulation would logically implement all measures to minimize the exposure of drug to water during handling, formulation, processing, and storage.
The manufacturing process of this formulation generally involves mixing the drug with dry powder excipients, such as with one or more binder, disintegrant, and filler. Water is then added to this premix while it is being continuously mixed in a mixer such as a high shear granulator. Alternatively, the binder may not be added as a dry powder to the premix, but dissolved in water. Addition of water with continuous mixing leads to the formation of granules, or granulation. The granules are then dried in dry, hot air using equipment and processes such as fluid bed drying or tray drying. Once dried, the granules may be milled using equipment such as comil or Fitzmil to reduce and/or reduce the width of distribution of particle size of granules. The granules are then mixed with extra-granular ingredients, which may include one or more of disintegrant, filler, glidant, and lubricant. The final blend is then compressed on a tablet press into core tablets. The core tablets may optionally be coated with a nonfunctional film coat.

pH dependent solubility = assay: pH dependent solubility
Source text: (§1) Brivanib alaninate is an ester compound that is formulated as a free base.

[2] = pKa of brivanib alaninate; details: free base
Source text: as §1

[3] = Stability in solution as a function of pH; details: at acidic pH and at high pH
Source text: as §1
(§2) Its main degradation pathway at neutral and basic pH is hydrolysis to the parent compound, brivanib. Under acidic conditions, it can also undergo diaryl ether cleavage in solution as shown below.

[4] = Stability of solid drug substance on storage; details: stored at room temperature protected from moisture
Source text: as §2

solubility (pH dependent solubility; acidic pH): increasing solubility
solubility (pH dependent solubility; neutral and basic pH): limited solubility
pKa [2]: 6.9
degradation [3]: degrades rapidly
stability of solid drug substance [4]: acceptable stability
Compound: Cc1cc2c(F)c(Oc3ncnn4cc(OC[C@@H](C)OC(=O)[C@H](C)N)c(C)c34)ccc2[nH]1 [Brivanib alaninate, [(1R), 2S]-2-aminopropionic acid 2-[4-(4-fluoro-2-methyl-1H-indol-5-yloxy)-5-methylpyrrolo[2,1-f][1,2,4]triazin-6-yloxy]-1-methylethyl ester]
degradation of the drug by wet granulation [1]: did not really result in significant degradation
